Results reported in patent US20250327027A1, “METHODS TO GENERATE ENHANCED TUMOR INFILTRATING LYMPHOCYTES THROUGH MICROFLUIDIC DELIVERY” (STEMCELL TECHNOLOGIES CANADA INC., priority 2021, published 2025).
Several values for one entry are separate records, joined by “and”; a condition that tells them apart may be missing. Equal values may be shown once.

What was measured:
post-REP TILs [1] = assay: Engineered TIL resistance to intrinsic apoptosis induced by Venetoclax and S63548 (Apotracker, Bcl-2 FACS); assay type: cell-based, human
Procedure: Fresh post-REP TILs were collected from a 6-well G-Rex plate, centrifuged at 400 rcf at room temperature, and then washed and resuspended to 3-10M/mL in AIM V and transferred to a T25 flask and cultured at 37° C. for 24 hr. The cells were then prepared for squeeze-processing. The cells were counted, filtered through a 40-um cell strainer, washed, and the concentration was adjusted to 60M/mL by adding XVivo-15.
As shown above in Table 13, Group A was used as a control (i.e., not contacted with any payload and not squeeze processed). Group 13 was squeeze processed without any payload at room temperature using a microfluidic constriction (70 μm depth, 4.5 un width, and 10 μm length) at 30 psi. Groups C-H were squeeze processed at room temperature with the payloads shown above, i.e., Group C: mbIL-7 mRNA; Group D: Bcl-2 mRNA; Group E: mbIL-7 mRNA+Bcl-2 mRNA; Group F: mbIL-2 mRNA; Group G: mbIL-2 mRNA+Bcl-2 mRNA; Group H: mbIL-2 mRNA+mbIL-7 mRNA+Bcl-2 mRNA. Groups C-H were squeeze processed using the same conditions as in Group B (i.e., microfluidic constriction: 70 μm depth, 4.5 μm width, and 10 μm length; at 30 psi). […]
At 24 hours, 200 ul of cells were aspirated and centrifuged at 400 ref for 4 minutes at room temperature. […] The cells were then analyzed using an Attune Flow cytometer.

[2] = tested on: melanoma and colorectal TILs; assay: Post thaw analysis of cryopreserved squeeze processed TILs (effect of DMSO and HSA); assay type: cell-based; details: DMSO 0% to 5%
Procedure: To evaluate whether freeze-thaw (including any effect from one or more of the cryopreservatives) has an effect on the squeeze processed TILs described herein, the following methods were used and the mRNA translation and phenotypic expression were assessed. Briefly, cryopreserved, squeezed melanoma and colorectal TILs were thawed and resuspended in CTS OpTmizer media. Post thaw cell recovery and viability were measured via NC-200. Cells were plated in tissue culture-treated plates and incubated for 4, 24 hours, and 8 days in a 37° C. incubator. The TILs were squeezed were assessed at each time point including t=0 (immediately post thaw) by flow cytometry for viability, surface levels of mbIL-2 and mbIL-12, and phenotypic markers such as CCR7, CD45RO, CD62L, CD127, KLRG-1, CD25, CD69, CD39, CD103, and CD25.
To assess the potential impact from DMSO, the following TILs were formulated in varying concentrations of DMSO (i.e., 0%, 1.25%, 2.5%, and 5%): (1) TILs squeeze processed with mRNA encoding membrane-bound LL-2 and mRNA encoding IL-12; and (2) non-squeeze processed TILs. Each of the formulated samples also contained 5% human serum albumin. Then, the TILs were cryopreserved and subsequently thawed as described above.

TILs = assay: Effect of cytokine (IL-2 or IL-15) during TIL expansion (colorectal tumor); assay type: cell-based; details: for Cell Count on Day 13 / Viability on Day 13: replicate wells
Procedure: Briefly, freshly resected colorectal tumor was rinsed in 1× Hank's Balanced Salt Solution (HBSS) with 10 µg/mL gentamicin and dissected into 8-27 mm^3 fragments using a forceps and scalpel. […] The G-Rex6M plate was then placed in a 37° C., 5% CO2 incubator for 3 days.
On day 3, the G-Rex6M plate was removed from the incubator. […] The G-Rex6M plate was returned to the 37° C., 5% CO2 incubator. On day 7 and 10, the G-Rex6M plate was removed from the incubator. […] The G-Rex6M plate was returned to the 37° C., 5% CO2 incubator.
[…] The number and viability of the TILs was assessed using a NucleoCounter NC-200.

post-REP TILs [3] = assay: mbIL-7 and Bcl-2 engineered TILs resistance to rhIL-7 sink effect (viability); assay type: cell-based, human; details: day 5; 250 μg/mL mbIL-7 mRNA
Procedure: Three 50M cell vials were thawed and diluted with FACs buffer. […] Cells were transferred to a T75 flask and cultured at 37° C. To allow the cells to recover from thaw, cells were cultured for 72 hr.
Cells were prepared for squeeze-processing. Cells were collected, centrifuged at 400 rcf at room temperature, and then washed, resuspended to 3-10M/mL in AIM V media without rhIL-2 to remove rhIL-2-dependent support prior to squeeze processing, transferred to a T25 flask, and cultured at 37° C. for 24 hours. The cells were then counted, filtered through a 40-um cell strainer, washed, and the concentration was adjusted to 50M/mL by adding XVivo-15.
As shown above in Table 19, Group A was used as a control (i.e., not contacted with any payload and not squeeze processed). Group 13 was squeeze processed without any payload at room temperature using microfluidic constrictions (70 μm depth, 4.5 m width, and 10 μm length) at 30 psi. […]
At days 1 and 5, 200 ul of cells were aspirated and centrifuged at 400 rcf for 4 minutes at room temperature. […] The cells were then analyzed using an Attune Flow cytometer.

post-REP TILs [4] = assay: Proliferative capacity of CD62L positive mbIL-2 and mbIL-12 engineered TILs; assay type: cell-based, human; details: baseline CD62L positive and baseline CD62L negative fractions; day 4
Procedure: Fresh TILs from two donors on day 14 of REP were prepared for squeeze-processing Donors were processed in parallel throughout the experiment. TILs were centrifuged at 400 rcf for 4 minutes at room temperature. The supernatant was aspirated, and the cell populations were separately resuspended in 1 mL FACs buffer Cells were incubated at 4 C for 20 minutes with fluorescent anti-human antibody targeting CD62L. After incubation 150 μL of FACs isolation buffer were added to each sample and the samples were spun at 400 rcf for 4 minutes. Cells were then isolated using magnetic beads that select based on fluorescence as a proxy for CD62L expression. Cell fractions were incubated for 20 minutes at 37 C with 1 μM final cytoplasmic dyes; CD62L positive cells were incubated with dye that excites/emits at 405/450 nm and CD62L negative cells were incubated with dye that excites/emits at […]. The cells were then pooled, counted, filtered through a 40-um cell strainer, washed, and the concentration was adjusted to 50-80M/mL by adding XVivo-15.
As shown above in Table 18, Groups A and E were used as controls (i.e., not contacted with any payload and not squeeze processed). […]
At days 1, 4, and 6, 200 ul of cells were aspirated and centrifuged at 400 rcf for 4 minutes at room temperature. […] The cells were then analyzed using an Attune Flow cytometer.

With CC1(C)CCC(CN2CCN(c3ccc(C(=O)NS(=O)(=O)c4ccc(NCC5CCOCC5)c([N+](=O)[O-])c4)c(Oc4cnc5[nH]ccc5c4)c3)CC2)=C(c2ccc(Cl)cc2)C1 [Venetoclax] the “apoptosis as measured by Apotracker dye” value (post-REP TILs [1]; 10, 100 or 1000 nM each of Venetoclax and S63548, 24 hours) was “induced apoptosis” and the “concentration with strongest dynamic range of cell killing” value (post-REP TILs [1]; Venetoclax and S63548 together) was 10 nM.

For C[S+](C)[O-] [DMSO], the “translation of the delivered mRNAs post-thaw” value [2] was “did not have a negative impact on the translation of the delivered mRNAs” and the “viability over time after thaw” value ([2]; squeeze-processed and unprocessed TILs) was “less DMSO also led to lower viability over time after thaw”.

For “IL-15: recombinant IL-15 added to culture media”, the “Cell Count on Day 13” value (TILs; 500 U/mL IL-15) was 1.92 × 10^7 and 8.32 × 10^6, the “Viability on Day 13” value (TILs; 500 U/mL IL-15) was 96.5% and 93.3% and the “Cell Count on Day 13” value (TILs; 3,000 U/mL IL-15) was 3.34 × 10^6 and 2.96 × 10^7. The “Viability on Day 13” value (TILs; 3,000 U/mL IL-15) was 94.8% and 91.3% and the “TIL expansion in culture” value (TILs; colorectal tumor fragments) was “promote TIL expansion”.

B1: rhIL-7: recombinant human (rh) IL-7 (protein, UniProt P13232 26-177, looked up)
Interleukin-7: DCDIEGKDGKQYESVLMVSIDQLLDSMKEIGSNCLNNEFNFFKRHICDANKEGMFLFRAARKLRQFLKMNSTGDFDLHLLKVSEGTTILLNCTGQVKGRKPAALGEAQPTKSLEENKSLKEQKKLNDLCFLKRLLQEIKTCWNKILMGTKEH
For B1, the “rhIL-7 support giving viability equal to mbIL-7-engineered TILs” value (post-REP TILs [3]) was 10 ng/mL.

B2: rhIL-12: recombinant human IL-12 added to culture (protein, UniProt P29459 23-219; P29460 23-328, looked up)
Interleukin-12 subunit alpha: RNLPVATPDPGMFPCLHHSQNLLRAVSNMLQKARQTLEFYPCTSEEIDHEDITKDKTSTVEACLPLELTKNESCLNSRETSFITNGSCLASRKTSFMMALCLSSIYEDLKMYQVEFKTMNAKLLMDPKRQIFLDQNMLAVIDELMQALNFNSETVPQKSSLEEPDFYKTKIKLCILLHAFRIRAVTIDRVMSYLNAS
Interleukin-12 subunit beta: IWELKKDVYVVELDWYPDAPGEMVVLTCDTPEEDGITWTLDQSSEVLGSGKTLTIQVKEFGDAGQYTCHKGGEVLSHSLLLLHKKEDGIWSTDILKDQKEPKNKTFLRCEAKNYSGRFTCWWLTTISTDLTFSVKSSRGSSDPQGVTCGAATLSAERVRGDNKEYEYSVECQEDSACPAAEESLPIEVMVDAVHKLKYENYTSSFFIRDIIKPDPPKNLQLKPLKNSRQVEVSWEYPDTWSTPHSYFSLTFCVQVQGKSKREKKDRVFTDKTSATVICRKNASISVRAQDRYYSSSWSEWASVPCS
With B2 the CD62L positive cells (post-REP TILs [4]) was “enriched”.
